Values quoted from earlier work, collected in publication PMC1892056, “Barusiban suppresses oxytocin-induced preterm labour in non-human primates” (BMC Pregnancy and Childbirth, 2007).
“And” between values parts separate entries of the source, which are not always exact repeats. Equal entries are not always repeated. Where two headings read alike, the source gives them in different places.

Key:
[1] = system: pregnant cynomolgus monkeys; set-up: method as in PMID 16914691; conditions: for Treatment days until delivery / end of treatment: continuous IV infusion from ca. GD 141, daily OT challenge, barusiban group delivered after the end of treatment; for Basal overall IUP before the daily OT challenges compared to control: during continuous barusiban or fenoterol treatment; for Day of delivery: gestational day, barusiban 150 μg kg^-1 h^-1 or fenoterol 3 μg kg^-1 h^-1 continuous infusion from ca. GD 141, daily OT challenge
Text: Background Preterm labour (PTL) is a major cause of neonatal mortality and morbidity, and oxytocin (OT) antagonists are potential tocolytics. Atosiban (TRACTOCILE) is a mixed vasopressin V1A/OT antagonist registered for acute treatment of PTL in Europe. […] Barusiban is a selective OT antagonist which has reached clinical development. A monkey model with OT-induced PTL was developed to compare barusiban and atosiban. In addition, the feasibility for long-term treatment of PTL with barusiban was explored.

[2] = pregnant cynomolgus monkeys, IV high- or low-dose bolus or infusion, plasma, LC-MS/MS
Text: Table 1 Summary of barusiban and atosiban PK/PD characteristics | column: Barusiban; Atosiban

[3] = system: pregnant cynomolgus monkeys; conditions: for Potency (IC50): calculated PK/PD potency (plasma concentration) for inhibition of OT-induced IUP, IV bolus or infusion; for Duration of action / Efficacy (decrease in IUP) / Onset of action: overall results for IV high- or low-dose bolus or infusion; for Duration of effect on IUP after high-dose infusion: two-hour high-dose IV infusion, barusiban 150 μg kg^-1 h^-1, atosiban 250 μg kg^-1 h^-1
Text: Table 1 Summary of barusiban and atosiban PK/PD characteristics | column: Barusiban; Atosiban || Background Preterm labour (PTL) is a major cause of neonatal mortality and morbidity, and oxytocin (OT) antagonists are potential tocolytics. Atosiban (TRACTOCILE) is a mixed vasopressin V1A/OT antagonist registered for acute treatment of PTL in Europe. Other off-label drugs have serious side effects. Barusiban is a selective OT antagonist which has reached clinical development. A monkey model with OT-induced PTL was developed to compare barusiban and atosiban. In addition, the feasibility for long-term treatment of PTL with barusiban was explored. Methods Conscious pregnant cynomolgus monkeys ... || Following induction of stable contractions by OT, barusiban or atosiban were administered as high- or low-dose bolus or infusion. […] However, barusiban's duration of action was generally longer than 13–15 hours, while atosiban's effect ceased within 1.5–3 hours (Table 1). The calculated potency of barusiban was about four times higher than the potency of atosiban. || (+ 1 further places)

human cloned OT receptor = conditions: selectivity OT receptor over V1A receptor
Text: Barusiban is a new long-acting OT receptor antagonist developed for PTL. It is a cyclic heptapeptide and an analogue of endogenous OT designed for longer duration of action. This could provide the convenience of less frequent administration in the clinic. Barusiban has approximately 300-fold greater affinity for the human cloned OT receptor than for the V1A receptor, whereas atosiban binds well to both receptors. […] It has reached phase II of clinical developmen ...

[4] = system: pregnant cynomolgus monkeys
Text: Background Preterm labour (PTL) is a major cause of neonatal mortality and morbidity, and oxytocin (OT) antagonists are potential tocolytics. Atosiban (TRACTOCILE) is a mixed vasopressin V1A/OT antagonist registered for acute treatment of PTL in Europe. Other off-label drugs have serious side effects. Barusiban is a selective OT antagonist which has reached clinical development. A monkey model with OT-induced PTL was developed to compare barusiban and atosiban. In addition, the feasibility for long-term treatment of PTL with barusiban was explored. Methods Conscious pregnant cynomolgus monkeys ... || Figure 2 Oxytocin-induced uterine contractions in cynomolgus monkeys. Individual infusion of 5–90 mU OT kg^-1 h^-1 induced stable uterine contractions of about 15–40 mmHg. No short- or long-term desensitisation of OT-induced contractions was observed. On the background of these stable OT-induced contractions, different tocolytics have been evaluated in terms of their PK/PD characteristics. Here two monkeys were infused in parallel for about 11 hours during the night. The switch-off the lights in the evening (06:00 PM) and switch-on the lights (06:00 AM) is labelled by respective symbols.

[5] = pregnant cynomolgus monkeys, OT-induced contractions

Compound	Treatment days until delivery / end of treatment [1]	Basal overall IUP before the daily OT challenges compared to control [1]	Day of delivery [1] [days]	Clearance [2] [mL/min/kg]	Distribution [2] [mL/kg]	Half-life [2] [min]	Potency (IC50) [3] [µg/mL]	Duration of action [3, 5] [h]	Onset of action [3, 5] [h]	Duration of effect on IUP after high-dose infusion ([3]; n = 3)	other results
CC(Cc1ccc(O)cc1)NCC(O)c1cc(O)cc(O)c1 (stereo not drawn) [fenoterol, reference compound]	~17 days	unchanged	~154								
Atosiban [reference compound]				8.98 to 15.6	359 to 640	27.6 to 39.6	0.0474	1 to 3	≤0.5 to 1.0	3 h	Efficacy (decrease in IUP) [3, 5]: ≤96%; Efficacy (decrease in IUP) ([3]; pregnant cynomolgus monkeys, OT-induced contractions, listed as atosiban): > 95%
Barusiban	approximately 23 days	unchanged	~163	0.417 to 1.1	70 to 159	87.6 to 154	0.0127	> 13 to 15	≤0.5 to 1.5	more than 14 h	Potency relative to atosiban ([3]; calculated potency of barusiban versus atosiban, OT-induced contractions): about four; Reversibility of inhibition of contractions ([3]; high-dose barusiban bolus, then escalating high-dose OT rescue infusion (133–2000 mU kg^-1 h^-1)): reversible with high-dose OT; Tolerability ([3]; pregnant cynomolgus monkeys): well tolerated; Duration of action ([3]; pregnant cynomolgus monkeys, OT-induced contractions, listed as barusiban): 13 to 15 h and > 13 h; Time to decrease in IUP compared with OT control levels ([3]; two hour high-dose IV infusion of barusiban at 150 μg kg^-1 h^-1, n = 3): ≤ 0.5 h; Days with statistically lower IUP than the control group ([1]; barusiban 150 μg kg^-1 h^-1 continuous IV infusion, daily 3–6 h OT infusion): 8/17; Rise in overall IUP during OT infusion ([1]; barusiban 150 μg kg^-1 h^-1 continuous infusion, OT control about fourfold increase): 30%; Days with statistically lower IUP than the fenoterol group ([1]; barusiban 150 μg kg^-1 h^-1 versus fenoterol 3 μg kg^-1 h^-1, continuous IV infusion, daily 3–6 h OT infusion): 11/17; Affinity for the human cloned OT receptor relative to the V1A receptor (human cloned OT receptor): approximately 300 fold
oxytocin [OT]											Desensitisation of OT-induced contractions ([4]; OT infusion 5–90 mU kg^-1 h^-1, short- and long-term): no OT-related desensitization occurred; Induced uterine contractions (IUP) ([4]; individual OT infusions at 5–90 mU kg^-1 h^-1): 15–40 mmHg
